Literature values, collected in patent US8409558B2, “Method for treatment of onychomycosis” (priority 2005, dated 2013).

Test system: onychomycosis (nail fungus)

CN(C/C=C/C#CC(C)(C)C)Cc1cccc2ccccc12 [Lamisil, terbinafine]
complete cure (continuous oral therapy): 41%
mycological cure (continuous oral therapy): 71%
cure of all nails (complete cure of all nails after 1 yr; % effective) (oral therapy, Warshaw et al. JAAD October 2005): 25%
